Results: patent US6372741B1, “Use of CSAID™ compounds as inhibitors of angiogenesis” (SmithKline Beecham Corporation, priority 1996, dated 2002)

Tests used:
[1] = system: angiogenesis in granuloma (vascular index); test: Murine air pouch granuloma model: vascular index by carmine vascular cast; type: in vivo, mice; conditions: for maximum reduction in vascular index: Compound I at 50 mg.kg, bid, i.p., versus vehicle control
Description: (§1) The murine airpouch granuloma model of chronic inflammation (Kimura et al., 1985, J. Pharmacobio-Dyn., 8:393-400; Colville-Nash et al.,1995, J. Pharm. and Exp. Ther., 274:1463-1472) whose disclosure is incorporated herein by reference in its entirety, is characterized by inflammatory cell influx, fibrous tissue proliferation and intense angiogenesis. […] In addition, angiogenesis can be accurately quantitated by a vascular casting method.
(§2) Murine air pouch granuloma model
(§3) Day-1, mice are anesthetized using Aerrane (isoflurane) gas (5%), after which 3mls of air is injected into the dorsal subcutaneous tissue using a 27 g needle. Mice are allowed to recover.
(§4) Day 0, mice are again anesthetized using Aerrane, once anesthetized 0.5 ml of Freunds complete adjuvant with 0.1% v/v croton oil is injected into the air pouch formed on Day-1. The animals also begin their dosing regime (number of days dependent upon study) with the animals typically receiving compound in 0.2 ml N,N, Dimethyl Acetoacetamide(DMA)(Sigma, St. Louis, Mo.)/Cremephor El (Sigma, St. Louis, Mo.)/saline (10/10/80) or other appropriate vehicle. The animals are allowed to recover and all subsequent dosing is performed on the animals in the absence of anesthetics.
(§5) Days 1-5, animals are dosed according to schedule.
[…] Louis, Mo.)/gelatin (5%)(Sigma, St. Louis, Mo.) solution. The animals are then sacrificed by lethal dose of anesthesia and chilled at 4 C for 2 hours prior to the removal of the granuloma tissue.
(§6) When the granuloma is removed it is weighed and then dried for 3 days at 45 C and reweighed. The dried tissue is then digested in 0.9 ml of a 0.05M phosphate buffer pH 7.0 containing 12 U/ml^−1 papain (Sigma, St. Louis, Mo.) and 0.33 g/L^−1 N-acetyl-1-Cysteine (Sigma, St. Louis, Mo.) at 57 C for 3 days. After 3 days digestion the carmine red is solubilized by the addition of 0.1 ml 5 mM NaOH. Samples are centrifuged and then filtered using 0.2 um acrodiscs. The carmine content is then determined against a carmine red standard curve (0.5 to 2 mg/ml) generated in extracted tissue from non carmine treated animals and read at 490 nm. Sample and standard values are determined using DeltaSoft Elisa analysis software (Biometallics Inc., Princeton, N.J.). The carmine content is then used to determine the vascular indexes for the various treatments, vascular index being the mg carmine dye/gm dry tissue.

[2] = system: IL-1β; test: IL-1β levels in granuloma tissue homogenates by ELISA; type: in vivo, mice; conditions: 30 mg/kg orally twice a day; peak at day 7
Procedure: (§7) The levels of these cytokines over the course to granuloma development were measured to determine if the modulation of their expression by the compound correlated with angiogenesis. Cytokine levels were measured by ELISA using homogenates of granuloma tissue. TNF-α levels rose sharply, peaking at day 7 and dropping back down to moderate levels by day 14 (FIG. 2). […] Thus, the ability of the compound to block the sharp rise in TNF-α and IL-1β between days 5 and 7 correlated well with the ability of the compound to prevent the increase in vascular index that occurs over the same time points.
(§8) Tissue extracts were made by homogenizing granulomas in 0.5 ml 5 mM KH2PO4/0.1 gm wet tissue. IL-1β levels were determined using a Cytoscreen Immunoassay Kit (catalog #KMC 0012) from BioSource International, Camarillo, Calif. TNF-α levels were determined using the following assay: plates were coated with hamster anti-murine TNF-α antibody (Genzyme, Cambridge, Mass.), for 2 hours at 37° C., washed and blocked with a casein-BSA solution (5 gram/L for each) for 1 hour at 37° C., the samples were added and incubated at 4° C. overnight. […] The reaction was terminated with 25 ul 0.1M NaF per well, the O.D. read at 460 nm. Sample values for both ELISAs are calculated using DeltaSoft ELISA analysis software (Biomettalics Inc., Princeton, N.J.).

[3] = system: TNF-α; test: TNF-α levels in granuloma tissue homogenates by ELISA; type: in vivo, mice; conditions: 30 mg/kg orally twice a day; day 7
Procedure: as §7, §8

[4] = system: granuloma vasculature; test: Microscopic evaluation of vasculature in day 6 granulomas; type: in vivo; conditions: treated versus untreated mice
Description: Angiogenesis in the granuloma was microscopically evaluated. The vasculature of day 6 granulomas from both untreated and compound I treated mice was examined. […] In fact, there was a almost no fine capillaries visible, only a few larger vessels.

[5] = system: granuloma size (dry weight); test: Murine air pouch granuloma model: granuloma size by dry weight; type: in vivo, mice; conditions: for effect on granuloma size as measured by dry weight: day 6 granuloma
Description: as §1, §2, §3, §4, §5
Louis, Mo.)/gelatin (5%)(Sigma, St. Louis, Mo.) solution. […]
as §6, with “The carmine content is then used to determine the vascular indexes for the various treatments, vascular index being the mg carmine dye/gm dry tissue.” left out

| Molecule | vascular index (VI) compared to control at day 3 ([1]; 30 mg/kg orally twice a day from day 0, day 3) | vascular index (VI) compared to control at days 5, 7 and 14 ([1]; 30 mg/kg orally twice a day from day 0, days 5, 7 and 14) | decrease in the vascular index (in words) ([1]; day 6 granuloma, dosing from induction) | maximum reduction in vascular index ([1]; day 6 granuloma) [%] | IL-1β expression in granuloma [2] | TNF-α levels in granuloma [3] | vasculature of granuloma, microscopic evaluation [4] | granuloma size over time course ([5]; 30 mg/kg orally twice a day from day 0, days 3, 5, 7 and 14) | effect on granuloma size as measured by dry weight [5] |
| --- | --- | --- | --- | --- | --- | --- | --- | --- | --- |
| Nc1nccc(-c2c(-c3ccc(F)cc3)ncn2C2CCNCC2)n1 [Compound I, 1-Piperidine-4-(4-fluorophenyl)-5-(2-aminopyrimidin-4-yl)imidazole] | did not cause a significant reduction in VI | lowered significantly | significant and dose dependent decrease | 44 | effectively blocked the increased IL-1β expression | greatly reduced TNF-α levels | striking reduction in the vasculature | unaffected by the compound | Neither Compound I nor medroxyprogesterone had an effect |
| medroxyprogesterone [reference compound] | – | – | – | 50 | – | – | – | – | Neither Compound I nor medroxyprogesterone had an effect |
